# Results as given in patent US20230148605A1, “APPLICATION OF GERANIOL IN PREPARATION OF FORMULATION FOR PROMOTING SYNTHESIS OF PSEUDOMONAS AERUGINOSA 3OC12-HSL SIGNAL MOLECULES” (priority 2021, published 2023).
# Columns and labels:
# Format in all cases: cell-based
# [1] = system: Pseudomonas aeruginosa PAO1; assay: Influence of geraniol on Pseudomonas aeruginosa PAO1 growth (growth curve, OD600, Bioscreen C)
# Description: An LB medium and geraniol were respectively added to test tubes, joined with the PAO1 bacterial suspension in the exponential growth phase, to make total volumes all reach 10 mL, so that PAO1 bacterial concentrations were all 10^6 CFU/mL, and concentrations of geraniol were respectively 0 μL/mL (control), 0.313 μL/mL, 0.625 μL/mL, 1.25 μL/mL, and 2.5 μL/mL. Samples from the experimental groups were respectively added to a honeycomb culture plate dedicated to an automatic growth curve analyzer (Bioscreen C), which has each well added with 350 μL culture medium; and each experimental group has three parallel experiments. The honeycomb culture plate was placed in the automatic growth curve analyzer, for shaking culture at 37° C. for 3 days, with OD600 measured every hour. Taking OD600 as an ordinate and culture time as an abscissa, a growth curve of PAO1 under an action of geraniol was drawn to study influence of geraniol on PAO1 growth.
# [2] = system: key genes in the Pseudomonas aeruginosa quorum sensing system and virulent genes regulated thereby; assay: Influence of geraniol on expression of key quorum sensing genes and regulated virulent genes (real-time fluorescent quantitative PCR); conditions: 1.25 μL/mL geraniol, 5 h, PAO1
# Description: The PAO1 bacterial suspension in a logarithmic growth phase was added to 50 mL sterile LB liquid medium to make a final concentration of the bacterial solution reach 10^6 CFU/mL. Geraniol was added to make a final concentration become 0 μL/mL (three biological replicates in a control group were respectively named A1, A2 and A3) and 1.25 μL/mL (three biological replicates in an experimental group were respectively named B1, B2 and B3); the respective groups were cultured at 37° C. and 180 rpm for 5 h, centrifuged to collect Bacteria, and then snap-frozen at −80° C. for later use.
# Total bacterial RNA was extracted with a kit of Trizol (Thermo Company). After extraction, purity of RNA was detected with an ultra-micro spectrophotometer (Implen, Munich, Germany). An A260/A280 value of each RNA sample should be between 1.8 and 2.0. Reverse transcription and real-time fluorescent quantitative PCR amplification were performed with the PrimeScript RT Master Mix kit (Takara, Dalian, China) and the ETC 811 PCR instrument (Beijing Eastwin Life Sciences, Inc.). A q-PCR reaction system adopted Takara's SYBR Premix Ex TaqII (Tli RNaseH Plus) (Code No. RR820A); the PCR program was pre-denaturation at 95° C. for 30 s; denaturation at 95° C. for 5 s, annealing at 60° C. for 34 s, 40 loops; according to the 10 gene sequences already published on the GenBank website, primers for q-PCR were designed with Primer Premier 5.0 software, and meanwhile, the 16SrRNA gene was used as an internal reference gene.
# Table 1 Genes and primer sequences thereof used in real-time fluorescent quantitative PCR
# [3] = system: key genes in the Pseudomonas aeruginosa quorum sensing system and virulent genes regulated thereby; assay: as above; conditions: low concentration of geraniol (0.313 to 2.5 μL/mL), PAO1; concluded from the experiments
compound,measurement,setting,value
"CC(C)=CCC/C(C)=C/CO [geraniol, Geraniol]",growth of PAO1 cells (OD600 growth curve),"[1]; geraniol 0.313, 0.625, 1.25 and 2.5 μL/mL, LB, 37° C., 3 days",slightly inhibit growth
same,concentration dependence of effect on growth of PAO1 cells,[1]; geraniol 0.313 to 2.5 μL/mL,concentration-dependent inhibitory effect
same,antibacterial activity compared with other geraniol groups,[1]; geraniol 2.5 μL/mL,highest antibacterial activity
same,bacterial proliferation rate in the logarithmic growth phase,"[1]; geraniol 2.5 μL/mL, versus other groups",significantly lower than other groups
same,expression level of pelF,[2],not significantly down-regulated
same,expression level of pslB,[2],not significantly down-regulated
same,expression level of the signal molecule synthase encoding gene rhl (rhl system),[2],does not change significantly
same,expression level of toxA,[2],not significantly down-regulated
same,expression level of virulent gene chiC,[2],significantly down-regulated
same,expression level of virulent gene lasA,[2],significantly down-regulated
same,expression level of virulent gene lasB,[2],significantly down-regulated
same,expression level of virulent gene phzM,[2],significantly down-regulated
same,"expression of lasI (signal molecule synthase gene, las system)",[2],up-regulated
same,"expression of lasR (signal molecule receptor protein gene, las system)",[2],down-regulated
same,"expression of pqsA (signal molecule synthase gene, pqs system)",[2],down-regulated
same,"expression of pqsR (signal molecule receptor protein gene, pqs system)",[2],up-regulated
same,"expression of rhlR (signal molecule receptor protein gene, rhl system)",[2],down-regulated
same,synthesis of 3OC12-HSL signal molecules,[3],significantly promote synthesis
